Our source for the GI50 and TGI values is PubChem BioAssay (NCI).

Some test systems named below: A549 NSCLC; ACHN renal; BT-549 breast; COLO 205 colon; HOP-92 NSCLC; HS 578T breast; OVCAR-5 ovarian; SK-MEL-5 melanoma; SNB-19 CNS; UACC-62 melanoma.
What all share (experiment): NCI-60 cell line screen, 48 h

Structures are written as SMILES. “And” between values parts separate entries of the source, which are not always exact repeats. Identical values can stand only once.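 Interpolation was linear, between the two tested concentrations surrounding the appropriate level; five concentrations were tested over 48 hours in 96-well plates. Here, GI50 denotes the concentration required for 50% inhibition of growth. TGI marks complete inhibition of growth.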 Some results are limits rather than exact numbers.

Take `O=S(=O)(c1cccc2c(I)cccc12)N1CCCNCC1`: the GI50 was 37 µM with A549 NSCLC; 18.1 µM with ACHN renal; 16.7 µM with BT-549 breast; 29.1 µM in the experiment with COLO 205 colon; 14.1 µM with HOP-92 NSCLC; 15.4 µM in the experiment with HS 578T breast. The GI50 in the experiment on OVCAR-5 ovarian is 16 µM; in the experiment on SK-MEL-5 melanoma, 8.71 µM; in the experiment with SNB-19 CNS, 20.9 µM; with UACC-62 melanoma, 19.9 µM. Moreover, the TGI in the experiment with A549 NSCLC is greater than 100 µM; in the experiment on ACHN renal it was 33.6 µM; in the experiment on BT-549 breast it was 43.3 µM; with COLO 205 colon, greater than 100 µM; in the experiment on HOP-92 NSCLC, 32.5 µM; in the experiment with HS 578T breast, 39.5 µM. Besides, the TGI in the experiment on OVCAR-5 ovarian was 33.5 µM; with SK-MEL-5 melanoma, 25.2 µM; with SNB-19 CNS it was 42.8 µM; in the experiment with UACC-62 melanoma it was 37.3 µM.

As to `CCSc1nc(SCC)c2c(-c3ccc(OC)c(OC)c3)c(C#N)c(SCC)nc2n1`, the GI50 in the experiment with A549 NSCLC was 30.4 µM; with ACHN renal, 17.8 µM; in the experiment on BT-549 breast, 23.5 µM; with COLO 205 colon, 91.5 µM; in the experiment on HOP-92 NSCLC, 23.2 µM; in the experiment with HS 578T breast it was 3 µM. Also, the GI50 with OVCAR-5 ovarian was 18.8 µM; with SK-MEL-5 melanoma it was 26.6 µM; in the experiment on SNB-19 CNS it was 47.7 µM; in the experiment with UACC-62 melanoma, 18.5 µM. Moreover, the TGI was 79.1 µM in the experiment with A549 NSCLC; 38 µM with ACHN renal; greater than 100 µM with BT-549 breast; greater than 100 µM with COLO 205 colon; 76.7 µM in the experiment on HOP-92 NSCLC; 19.7 µM with HS 578T breast. The TGI was 47.7 µM with OVCAR-5 ovarian, 78.8 µM in the experiment with SK-MEL-5 melanoma, greater than 100 µM with SNB-19 CNS and 43.4 µM with UACC-62 melanoma.

For `NC(=O)Nc1cc(-c2cccc(F)c2)sc1C(=O)N[C@H]1CCCNC1`, the GI50 was 0.188 µM and 0.356 µM in the experiment on A549 NSCLC; 0.0512 µM and 0.0952 µM in the experiment on ACHN renal; 0.15 µM and 0.334 µM in the experiment with BT-549 breast; 0.169 µM and 0.216 µM in the experiment with COLO 205 colon; 0.0553 µM and 0.416 µM in the experiment on HOP-92 NSCLC; 0.0322 µM and 0.197 µM with HS 578T breast. Besides, the GI50 with OVCAR-5 ovarian is 0.173 µM and 0.361 µM; in the experiment on SK-MEL-5 melanoma it was 0.295 µM and 0.456 µM; in the experiment with SNB-19 CNS, 0.562 µM and 0.54 µM; in the experiment with UACC-62 melanoma, 0.388 µM and 0.353 µM. Further, the TGI is 4.48 µM and 2.12 µM with A549 NSCLC; > 4.73 µM and 2.75 µM in the experiment on ACHN renal; 2.05 µM and 1.41 µM with BT-549 breast; 0.937 µM and 0.645 µM with COLO 205 colon; 1.2 µM and 1.71 µM with HOP-92 NSCLC; > 6.2 µM and 4.4 µM in the experiment with OVCAR-5 ovarian. In addition, the TGI with SK-MEL-5 melanoma was 2.06 µM and 4.27 µM; in the experiment on SNB-19 CNS it was > 5.85 µM and 6.88 µM; in the experiment with UACC-62 melanoma it was > 5.1 µM and 3.43 µM.

With `O=[N+]([O-])c1cc(Cl)cnc1Br`, the TGI with A549 NSCLC was found to be 8.26 µM; with ACHN renal, 4.66 µM; in the experiment on BT-549 breast, 11.3 µM; with COLO 205 colon, 3.12 µM; in the experiment on HOP-92 NSCLC, 25.4 µM; with HS 578T breast, 59.9 µM. Further, the TGI with OVCAR-5 ovarian worked out at 9.48 µM; in the experiment on SK-MEL-5 melanoma, 10.1 µM; in the experiment with SNB-19 CNS it was 26.8 µM; in the experiment with UACC-62 melanoma, 4.9 µM.

For the molecule `CN(C)CC1CCC2=C(C1=O)C(c1ccc(Cl)c(Cl)c1)C1=C(CCC(CN(C)C)C1=O)O2` (centres undefined), the GI50 is 16.2 µM with A549 NSCLC; 14.3 µM with ACHN renal; 14.2 µM in the experiment on BT-549 breast; 5.48 µM in the experiment with COLO 205 colon; 11.3 µM in the experiment with HOP-92 NSCLC; 15.6 µM with HS 578T breast. Further, the GI50 in the experiment with OVCAR-5 ovarian is 20 µM; with SK-MEL-5 melanoma it was 15.2 µM; with SNB-19 CNS it was 16 µM; in the experiment on UACC-62 melanoma, 15.3 µM. The TGI in the experiment on A549 NSCLC amounted to 32.2 µM; with ACHN renal, 27.3 µM; in the experiment on BT-549 breast it was 27.7 µM; with COLO 205 colon, 19.6 µM; in the experiment with HOP-92 NSCLC, 25.5 µM; in the experiment with HS 578T breast, 36.2 µM. Also, the TGI in the experiment with OVCAR-5 ovarian worked out at 36.6 µM; with SK-MEL-5 melanoma, 29 µM; in the experiment with SNB-19 CNS it was 29.7 µM; in the experiment on UACC-62 melanoma it was 28.7 µM.

For `COc1ccc(Cl)c(Nc2nc3ccccc3nc2NS(=O)(=O)c2cccc(NC(=O)C(C)(C)N)c2)c1`, the GI50 was 7.7 µM and > 10 µM with A549 NSCLC; 10.5 µM and > 10 µM in the experiment on ACHN renal; 4.87 µM and 4.42 µM in the experiment on BT-549 breast; 7.53 µM and 2.86 µM in the experiment with COLO 205 colon; 1.57 µM and 0.358 µM in the experiment on HOP-92 NSCLC; 2.37 µM and 1.69 µM in the experiment on HS 578T breast. Moreover, the GI50 with OVCAR-5 ovarian was 4.76 µM and > 10 µM; in the experiment on SK-MEL-5 melanoma, 12.1 µM and > 10 µM; with SNB-19 CNS it was 12.4 µM and > 10 µM; with UACC-62 melanoma, 13 µM. Also, the TGI was 21.4 µM and > 10 µM in the experiment on A549 NSCLC; 22.6 µM and > 10 µM in the experiment on ACHN renal; 18.4 µM and > 10 µM in the experiment with BT-549 breast; 22.3 µM and > 10 µM with COLO 205 colon; 9.94 µM and 5.42 µM with HOP-92 NSCLC; 15.1 µM and > 10 µM in the experiment with HS 578T breast. Further, the TGI with OVCAR-5 ovarian was 22.5 µM and > 10 µM; in the experiment with SK-MEL-5 melanoma, 24.6 µM and > 10 µM; with SNB-19 CNS, 25.9 µM and > 10 µM; with UACC-62 melanoma, 26.6 µM.

`CCN1C(=O)N(CC)C2C1NN=c1s/c(=C\c3ccccn3)c(=O)n12` (centres undefined): the GI50 is 2.15 µM in the experiment with A549 NSCLC; 6.45 µM in the experiment with ACHN renal; 3.99 µM in the experiment on BT-549 breast; 1.16 µM in the experiment with COLO 205 colon; 2.37 µM with HOP-92 NSCLC; 2.76 µM in the experiment with HS 578T breast. Moreover, the GI50 with OVCAR-5 ovarian was 4.61 µM; with SK-MEL-5 melanoma, 2.46 µM; in the experiment with SNB-19 CNS, 3.04 µM; with UACC-62 melanoma, 0.833 µM. The TGI in the experiment on A549 NSCLC is greater than 100 µM; in the experiment with ACHN renal it was greater than 100 µM; in the experiment on BT-549 breast it was greater than 100 µM; in the experiment on COLO 205 colon, 11.6 µM; with HOP-92 NSCLC, greater than 100 µM; with HS 578T breast, greater than 100 µM. In addition, the TGI with OVCAR-5 ovarian, in the experiment with SK-MEL-5 melanoma, in the experiment with SNB-19 CNS and in the experiment with UACC-62 melanoma was greater than 100 µM in each case.

For `O=C(Nc1ccc(Oc2cccc(F)c2)c(Cl)c1)c1cnccn1`, the GI50 was 0.938 µM in the experiment on A549 NSCLC; 3.3 µM with ACHN renal; 2.18 µM with BT-549 breast; 0.789 µM with COLO 205 colon; 1.44 µM with HOP-92 NSCLC; 1.19 µM with HS 578T breast. For the same molecule, the GI50 is 4.27 µM in the experiment on OVCAR-5 ovarian, 1.79 µM in the experiment on SK-MEL-5 melanoma, 2.74 µM in the experiment on SNB-19 CNS and 2.72 µM in the experiment on UACC-62 melanoma. Further, the TGI with A549 NSCLC, with ACHN renal, with BT-549 breast, with COLO 205 colon, with HOP-92 NSCLC and with HS 578T breast was greater than 50 µM in each case. The TGI in the experiment on OVCAR-5 ovarian, in the experiment on SK-MEL-5 melanoma, with SNB-19 CNS and in the experiment with UACC-62 melanoma was greater than 50 µM in each case.
